{"source": "patent US5498632A", "about": "“Esters of acyl carnitines with long-chain aliphatic alcohols and pharmaceutical compositions containing same having antibacterial activity” (Sigma-Tau Industrie Farmaceutiche Riunite S.p.A., priority 1992, dated 1996)", "key": {"[1]": {"test_system": "Enterobacter aerogenes (UM)", "assay": "MIC in broth, Gram- strains", "format": "cell-based", "settings": "Klebsiella aerogenes, 18 h, read-out: Minimal Inhibitory Concentration (MIC)", "outline": "(§1)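 Minimal inhibitory concentrations come from a standard microdilution test in Mueller-Hinton broth. Cells are seeded at 5.0×10^4 CFU/ml final and exposed for 18 h at 37 °C.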"}, "Escherichia coli (76 F)": {"test_system": "Escherichia coli (76 F)", "assay": "MIC in broth, Gram- strains", "format": "cell-based", "settings": "18 h, E. coli (76 F), read-out: Minimal Inhibitory Concentration (MIC)", "outline": "as §1"}, "Escherichia coli (92 F)": {"test_system": "Escherichia coli (92 F)", "assay": "MIC in broth, Gram- strains", "format": "cell-based", "settings": "18 h, E. coli (92 F), read-out: Minimal Inhibitory Concentration (MIC)", "outline": "as §1"}, "Escherichia coli (R 57B)": {"test_system": "Escherichia coli (R 57B)", "assay": "MIC in broth, Gram- strains", "format": "cell-based", "settings": "18 h, E. coli (R 57B), read-out: Minimal Inhibitory Concentration (MIC)", "outline": "as §1"}, "[2]": {"test_system": "Klebsiella aerogenes (SH 1082)", "assay": "MIC in broth, Gram- strains", "format": "cell-based", "settings": "18 h, read-out: Minimal Inhibitory Concentration (MIC)", "outline": "as §1"}, "Klebsiella oxytoca (552)": {"test_system": "Klebsiella oxytoca (552)", "assay": "MIC in broth, Gram- strains", "format": "cell-based", "settings": "18 h, read-out: Minimal Inhibitory Concentration (MIC)", "outline": "as §1"}, "[3]": {"test_system": "Klebsiella pneumoniae (7823)", "assay": "MIC in broth, Gram- strains", "format": "cell-based", "settings": "18 h, read-out: Minimal Inhibitory Concentration (MIC)", "outline": "as §1"}, "Proteus mirabilis (32)": {"test_system": "Proteus mirabilis (32)", "assay": "MIC in broth, Gram- strains", "format": "cell-based", "settings": "18 h, read-out: Minimal Inhibitory Concentration (MIC)", "outline": "as §1"}, "Proteus morganii (D.S.)": {"test_system": "Proteus morganii (D.S.)", "assay": "MIC in broth, Gram- strains", "format": "cell-based", "settings": "Morganella morganii, 18 h, read-out: Minimal Inhibitory Concentration (MIC)", "outline": "as §1"}, "Proteus vulgaris (UM)": {"test_system": "Proteus vulgaris (UM)", "assay": "MIC in broth, Gram- strains", "format": "cell-based", "settings": "18 h, read-out: Minimal Inhibitory Concentration (MIC)", "outline": "as §1"}, "[4]": {"test_system": "Pseudomonas aeruginosa (10 E)", "assay": "MIC in broth, Gram- strains", "format": "cell-based", "settings": "18 h, read-out: Minimal Inhibitory Concentration (MIC)", "outline": "as §1"}, "[5]": {"test_system": "Pseudomonas aeruginosa (3 E)", "assay": "MIC in broth, Gram- strains", "format": "cell-based", "settings": "18 h, read-out: Minimal Inhibitory Concentration (MIC)", "outline": "as §1"}, "Salmonella typhi (J)": {"test_system": "Salmonella typhi (J)", "assay": "MIC in broth, Gram- strains", "format": "cell-based", "settings": "Salmonella enterica, 18 h, read-out: Minimal Inhibitory Concentration (MIC)", "outline": "as §1"}, "[6]": {"test_system": "Salmonella typhimurium (D.S.)", "assay": "MIC in broth, Gram- strains", "format": "cell-based", "settings": "Salmonella enterica, 18 h, read-out: Minimal Inhibitory Concentration (MIC)", "outline": "as §1"}, "[7]": {"test_system": "Serratia marcescens (A/1)", "assay": "MIC in broth, Gram- strains", "format": "cell-based", "settings": "18 h, read-out: Minimal Inhibitory Concentration (MIC)", "outline": "as §1"}, "Gram- bacterial strains": {"test_system": "Gram- bacterial strains", "assay": "Mean MIC in broth and resistant strain number, Gram- strains", "format": "cell-based", "settings": "18 h; Gram- strains; versus susceptible strains; read-out: Mean MIC values", "outline": "as §1"}, "[8]": {"test_system": "H. pylori sessile cells (NCTC 11637)", "assay": "Bactericidal effect against H. pylori sessile cells (attached to HEp-2)", "format": "cell-based, Helicobacter pylori", "text": "The investigation aimed at evaluating the difference in susceptibility to ST 722 of planktonic and sessile Helicobacter cells, using in the latter case an \"in vitro\" experimental model, which closely resembled the clinical condition occurring \"in vivo\" in type-B gastritis. We used HEp-2 cells, an epithelial cell line which harbors the same membrane glycolipid receptors for H. pylori as those harbored by the mucous cells of the antral gastric mucosa (MEGRAUD, F., TRIMOULET, P., LAMOULIATTE, H. and BOYANOVA, L., 1991. Bacterial effect of Amoxicillin on \"H. pylori\" in an in vitro model using epithelial cells. Antimicrob. Agents Chemoter. 35 (5): 869-872 and LINGWOOD, C. A., LAW, H. and PELLIZANI, A., 1989. Gastric glycerolipid as a receptor for Campylobacter pylori. Lancet i: 238-241). Additionally, the viability of HEp-2 cells (either infected or not) was evaluated following \"in vitro\" ST 722 treatment. The degree of cytotoxicity was assessed by cytofiuorimetric analysis of Propidium Iodine-stained HEp-2 cells.\nAn HEp-2 epithelial cell line (a human larynx carcinoma) was used to permit the attachment of Helicobacter cells (sessile cells).\nHelicobacter pylori NCTC 11637.\nThe antibacterial and cytotoxic activity of ST 722 against Helicobacter and HEp-2 cells, respectively, was evaluated by using 3 different ST 722 concentrations, namely 0.1, 1.56 (i.e. the MIC value vs. H. pylori NCTC 11637) and 4 mcg/ml.\nA confluent HEp-2 cell culture is prepared, which is obtained after incubating the cell line in tissue culture flasks for 24 hours (37° C., 10% CO2, and ~96% humidity) in Columbia agar medium supplemented with Vitox and 7% defribinated horse serum. The bacteria are first harvested with DMEM medium 10% FCS, and then inoculated onto the HEp-2 cells to obtain a concentration of 5.0×10^6 CFU per flask (i.e. 2.0×10^5 CFU/cm^2).\nBacterial adhesion to the epitelial cells is favored by incubation for 2 hours at 37° C. and 5% CO2. After washing to remove the non attached bacteria. ST 722 is added (5 ml of 3 different concentrations) to the HEp-2 cell culture flasks.\nTwo additional flasks are added with 5 ml medium lacking ST 722, as Helicobacter growth controls.\nAt a predetermined time, the flasks were taken, the medium was discarded, and the cells were washed. The cells were harvested with a rubber policeman in 1 ml of phosphate-buffered saline and disrupted with an Ultraturax homogenizer.\nAfter making geometric dilutions of the suspensions (0.1 ml of each dilution inoculated onto each plate in triplicate), the plates were incubated for 7 days in a microaerobic atmosphere, and the plates with 30 to 200 CFU were counted.\nThe ST 722 activity against Helicobacter planktonic cells was determined in the same experimental conditions in the absence of HEp-2 cells. Finally, the results are expressed as CFU per flask of each sample with respect to the relevant control (i.e. sessile or planktonic cultures)."}}, "data": [{"smiles": "CCCCCCCCCCCOC(=O)CC(C[N+](C)(C)C)OC(=O)CC(C)C", "note": "[ST 722, Isovaleryl-L-Carnitine Undecyl Ester Chloride]", "values": [{"measurement": "MIC", "setting": "[1]", "value": 25, "unit": "µg/mL"}, {"measurement": "MIC", "setting": "Escherichia coli (76 F)", "value": 25, "unit": "µg/mL"}, {"measurement": "MIC", "setting": "Escherichia coli (92 F)", "value": 25, "unit": "µg/mL"}, {"measurement": "MIC", "setting": "Escherichia coli (R 57B)", "value": 25, "unit": "µg/mL"}, {"measurement": "MIC", "setting": "[2]", "value": 25, "unit": "µg/mL"}, {"measurement": "MIC", "setting": "Klebsiella oxytoca (552)", "value": 12.5, "unit": "µg/mL"}, {"measurement": "MIC", "setting": "[3]", "value": 12.5, "unit": "µg/mL"}, {"measurement": "MIC", "setting": "Proteus mirabilis (32)", "value": "> 100", "unit": "µg/mL"}, {"measurement": "MIC", "setting": "Proteus morganii (D.S.)", "value": 100, "unit": "µg/mL"}, {"measurement": "MIC", "setting": "Proteus vulgaris (UM)", "value": 50, "unit": "µg/mL"}, {"measurement": "MIC", "setting": "[4]", "value": 50, "unit": "µg/mL"}, {"measurement": "MIC", "setting": "[5]", "value": 50, "unit": "µg/mL"}, {"measurement": "MIC", "setting": "Salmonella typhi (J)", "value": 25, "unit": "µg/mL"}, {"measurement": "MIC", "setting": "[6]", "value": 25, "unit": "µg/mL"}, {"measurement": "MIC", "setting": "[7]", "value": 50, "unit": "µg/mL"}, {"measurement": "MIC", "setting": "Gram- bacterial strains", "value": 35.7, "unit": "µg/mL"}, {"measurement": "Sessile cells (CFU per flask)", "setting": "[8]; 3-h contact, 0.1 mcg/ml", "value": "9.50 × 10^2 CFU per flask"}, {"measurement": "Sessile cells (CFU per flask)", "setting": "[8]; 3-h contact, 1.56 mcg/ml", "value": "9.50 × 10^2 CFU per flask"}, {"measurement": "Sessile cells (CFU per flask)", "setting": "[8]; 3-h contact, 4.0 mcg/ml", "value": "4.50 × 10^2 CFU per flask"}, {"measurement": "Sessile cells (CFU per flask)", "setting": "[8]; 24-h contact, 0.1 mcg/ml", "value": "4.35 × 10^5 CFU per flask"}, {"measurement": "Sessile cells (CFU per flask)", "setting": "[8]; 24-h contact, 1.56 mcg/ml", "value": "1.80 × 10^5 CFU per flask"}, {"measurement": "Sessile cells (CFU per flask)", "setting": "[8]; 24-h contact, 4.0 mcg/ml", "value": "1.75 × 10^5 CFU per flask"}, {"measurement": "killing at 4 µg/mL", "setting": "[8]; Helicobacter pylori, NCTC11637, HEp-2, 3-h contact, 4 mcg/ml, read-out: reduction of number of sessile bacterial cells", "value": "~50", "unit": "%"}]}]}
